According to the supplement of paper PMC10307832:

Experiments:
Assay in all cases: relative viability (nuclei count vs DMSO), 5 days (fraction); higher = more cells survive
Dovitinib + Tozasertib = compound: CN1CCN(c2ccc3nc(-c4c(N)c5c(F)cccc5[nH]c4=O)[nH]c3c2)CC1 [Dovitinib] + Cc1cc(Nc2cc(N3CCN(C)CC3)nc(Sc3ccc(NC(=O)C4CC4)cc3)n2)n[nH]1 [Tozasertib] (partner 0.1 µM)
How it was run: (§1)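 Lung cancer cell lines were pin-tool dosed in 1536-well plates on the day after seeding, with either a lone drug or a fixed anchor-drug dose plus five library-drug doses (not always all listed) in √10 steps. Nuclei were counted on 4× images after 5 days. Relative viability is the ratio of treated-well to vehicle-well nuclei counts, with each value a median of duplicate plates.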

Dovitinib + Dasatinib = compound: CN1CCN(c2ccc3nc(-c4c(N)c5c(F)cccc5[nH]c4=O)[nH]c3c2)CC1 [Dovitinib] + Cc1nc(Nc2ncc(C(=O)Nc3c(C)cccc3Cl)s2)cc(N2CCN(CCO)CC2)n1 [Dasatinib] (partner 0.075 µM)
How it was run: as §1

Dovitinib + Foretinib = compound: CN1CCN(c2ccc3nc(-c4c(N)c5c(F)cccc5[nH]c4=O)[nH]c3c2)CC1 [Dovitinib] + COc1cc2c(Oc3ccc(NC(=O)C4(C(=O)Nc5ccc(F)cc5)CC4)cc3F)ccnc2cc1OCCCN1CCOCC1 [Foretinib] (partner 0.25 µM)
How it was run: as §1

Dovitinib + Phenformin = compound: CN1CCN(c2ccc3nc(-c4c(N)c5c(F)cccc5[nH]c4=O)[nH]c3c2)CC1 [Dovitinib] + N=C(N)NC(=N)NCCc1ccccc1 [Phenformin] (partner 250 µM)
How it was run: as §1

Dovitinib + OSI-027 = compound: CN1CCN(c2ccc3nc(-c4c(N)c5c(F)cccc5[nH]c4=O)[nH]c3c2)CC1 [Dovitinib] + COc1cccc2cc(-c3nc([C@H]4CC[C@H](C(=O)O)CC4)n4ncnc(N)c34)[nH]c12 [OSI-027] (partner 0.5 µM)
How it was run: as §1

Dovitinib + Luminespib = compound: CN1CCN(c2ccc3nc(-c4c(N)c5c(F)cccc5[nH]c4=O)[nH]c3c2)CC1 [Dovitinib] + CCNC(=O)c1noc(-c2cc(C(C)C)c(O)cc2O)c1-c1ccc(CN2CCOCC2)cc1 [Luminespib] (partner 0.01 µM)
How it was run: as §1

Dovitinib = compound: CN1CCN(c2ccc3nc(-c4c(N)c5c(F)cccc5[nH]c4=O)[nH]c3c2)CC1 [Dovitinib]
How it was run: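 Vehicle-anchored 1536-well plates of lung cancer cell lines, held overnight at 37 °C, were pinned with five library-drug doses (not always all listed) spaced by √10. No medium change followed over the next 5 days, after which the cells were fixed, permeabilised and Hoechst-stained together and imaged at 4×. Nuclei were counted with MetaXpress, and viability is treated-well nuclei over vehicle-well nuclei, taken as a median across plates. Plates passed with control CV below 25% and at least one doubling.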

## NCI-H1623
Dovitinib + Tozasertib; first compound 0.02 µM
  relative viability: 0.458
Dovitinib + Tozasertib; first compound 0.06325 µM
  relative viability: 0.427
Dovitinib + Tozasertib; first compound 0.2 µM
  relative viability: 0.495
Dovitinib + Tozasertib; first compound 0.6325 µM
  relative viability: 0.445
Dovitinib + Tozasertib; first compound 2 µM
  relative viability: 0.423
Dovitinib + Dasatinib; first compound 0.02 µM
  relative viability: 0.47
Dovitinib + Dasatinib; first compound 0.06325 µM
  relative viability: 0.527
Dovitinib + Dasatinib; first compound 0.2 µM
  relative viability: 0.615
Dovitinib + Dasatinib; first compound 0.6325 µM
  relative viability: 0.536
Dovitinib + Dasatinib; first compound 2 µM
  relative viability: 0.537
Dovitinib + Foretinib; first compound 0.02 µM
  relative viability: 0.81
Dovitinib + Foretinib; first compound 0.06325 µM
  relative viability: 0.821
Dovitinib + Foretinib; first compound 0.2 µM
  relative viability: 0.958
Dovitinib + Foretinib; first compound 0.6325 µM
  relative viability: 0.901
Dovitinib + Foretinib; first compound 2 µM
  relative viability: 0.893
Dovitinib + Phenformin; first compound 0.02 µM
  relative viability: 0.569
Dovitinib + Phenformin; first compound 0.06325 µM
  relative viability: 0.574
Dovitinib + Phenformin; first compound 0.2 µM
  relative viability: 0.602
Dovitinib + Phenformin; first compound 0.6325 µM
  relative viability: 0.617
Dovitinib + Phenformin; first compound 2 µM
  relative viability: 0.636
Dovitinib + OSI-027; first compound 0.02 µM
  relative viability: 0.476
Dovitinib + OSI-027; first compound 0.06325 µM
  relative viability: 0.436
Dovitinib + OSI-027; first compound 0.2 µM
  relative viability: 0.456
Dovitinib + OSI-027; first compound 0.6325 µM
  relative viability: 0.384
Dovitinib + OSI-027; first compound 2 µM
  relative viability: 0.384
Dovitinib + Luminespib; first compound 0.02 µM
  relative viability: 0.493
Dovitinib + Luminespib; first compound 0.06325 µM
  relative viability: 0.605
Dovitinib + Luminespib; first compound 0.2 µM
  relative viability: 0.491
Dovitinib + Luminespib; first compound 0.6325 µM
  relative viability: 0.551
Dovitinib + Luminespib; first compound 2 µM
  relative viability: 0.516
Dovitinib; 0.02 µM
  relative viability: 1.07
Dovitinib; 0.06325 µM
  relative viability: 0.98
Dovitinib; 0.2 µM
  relative viability: 0.916
Dovitinib; 0.6325 µM
  relative viability: 1
Dovitinib; 2 µM
  relative viability: 0.892
